Measurements published in PubChem BioAssay AID1259407 (Chemical Carcinogenesis Research Information System (CCRIS), 2018).
Activity calls are given as the source filed them. The rule behind the calls is not given here.

Test system: CCRIS mutagenicity, Ames/micronucleus/aberration tests
Test: CCRIS mutagenicity studies

Compound: C/C=C/C=C/C=O
- mutagenic call (Test System: AMES SALMONELLA TYPHIMURIUM, Strain/Indicator: TA98, Metabolic Activation: HAMSTER LIVER S-9, AROCLOR 1254 (30%), Method: PREINCUBATION): inactive; negative
- mutagenic call (Test System: AMES SALMONELLA TYPHIMURIUM, Strain/Indicator: TA98, Metabolic Activation: HAMSTER, LIVER, S-9, AROCLOR 1254, Method: STANDARD PLATE): inactive; negative
- mutagenic call (Test System: AMES SALMONELLA TYPHIMURIUM, Strain/Indicator: TA98, Metabolic Activation: NONE, Method: PREINCUBATION): inactive; negative
- mutagenic call (Test System: AMES SALMONELLA TYPHIMURIUM, Strain/Indicator: TA98, Metabolic Activation: NONE, Method: STANDARD PLATE): inactive; negative
- mutagenic call (Test System: AMES SALMONELLA TYPHIMURIUM, Strain/Indicator: TA98, Metabolic Activation: RAT LIVER S-9, AROCLOR 1254 (30%), Method: PREINCUBATION): inactive; negative
- mutagenic call (Test System: AMES SALMONELLA TYPHIMURIUM, Strain/Indicator: TA98, Metabolic Activation: RAT, LIVER, S-9, AROCLOR 1254, Method: STANDARD PLATE): inactive; negative
- mutagenic call (Test System: AMES SALMONELLA TYPHIMURIUM, Strain/Indicator: TA100, Metabolic Activation: HAMSTER LIVER S-9, AROCLOR 1254 (5%), Method: PREINCUBATION): active; positive
- mutagenic call (Test System: AMES SALMONELLA TYPHIMURIUM, Strain/Indicator: TA100, Metabolic Activation: HAMSTER LIVER S-9, AROCLOR 1254 (10%), Method: PREINCUBATION): active; positive
- mutagenic call (Test System: AMES SALMONELLA TYPHIMURIUM, Strain/Indicator: TA100, Metabolic Activation: HAMSTER, LIVER, S-9, AROCLOR 1254, Method: STANDARD PLATE): inactive; negative
- mutagenic call (Test System: AMES SALMONELLA TYPHIMURIUM, Strain/Indicator: TA100, Metabolic Activation: NONE, Method: PREINCUBATION (THREEFOLD CELL DENSITY)): active; positive
- mutagenic call (Test System: AMES SALMONELLA TYPHIMURIUM, Strain/Indicator: TA100, Metabolic Activation: NONE, Method: STANDARD PLATE): inactive; negative
- mutagenic call (Test System: AMES SALMONELLA TYPHIMURIUM, Strain/Indicator: TA100, Metabolic Activation: RAT LIVER S-9, AROCLOR 1254 (5%), Method: PREINCUBATION): active; positive
- mutagenic call (Test System: AMES SALMONELLA TYPHIMURIUM, Strain/Indicator: TA100, Metabolic Activation: RAT LIVER S-9, AROCLOR 1254 (10%), Method: PREINCUBATION): active; positive
- mutagenic call (Test System: AMES SALMONELLA TYPHIMURIUM, Strain/Indicator: TA100, Metabolic Activation: RAT, LIVER, S-9, AROCLOR 1254, Method: PREINCUBATION): active; positive
- mutagenic call (Test System: AMES SALMONELLA TYPHIMURIUM, Strain/Indicator: TA100, Metabolic Activation: RAT, LIVER, S-9, AROCLOR 1254, Method: PREINCUBATION (THREEFOLD CELL DENSITY)): active; positive
- mutagenic call (Test System: AMES SALMONELLA TYPHIMURIUM, Strain/Indicator: TA100, Metabolic Activation: RAT, LIVER, S-9, AROCLOR 1254, Method: STANDARD PLATE): inactive; negative
- mutagenic call (Test System: AMES SALMONELLA TYPHIMURIUM, Strain/Indicator: TA104, Metabolic Activation: NONE, Method: PREINCUBATION): active; positive
- mutagenic call (Test System: AMES SALMONELLA TYPHIMURIUM, Strain/Indicator: TA1535, Metabolic Activation: HAMSTER LIVER S-9, AROCLOR 1254 (30%), Method: PREINCUBATION): inactive; negative
- mutagenic call (Test System: AMES SALMONELLA TYPHIMURIUM, Strain/Indicator: TA1535, Metabolic Activation: HAMSTER, LIVER, S-9, AROCLOR 1254, Method: STANDARD PLATE): inactive; negative
- mutagenic call (Test System: AMES SALMONELLA TYPHIMURIUM, Strain/Indicator: TA1535, Metabolic Activation: NONE, Method: PREINCUBATION): inactive; negative
- mutagenic call (Test System: AMES SALMONELLA TYPHIMURIUM, Strain/Indicator: TA1535, Metabolic Activation: NONE, Method: STANDARD PLATE): inactive; negative
- mutagenic call (Test System: AMES SALMONELLA TYPHIMURIUM, Strain/Indicator: TA1535, Metabolic Activation: RAT LIVER S-9, AROCLOR 1254 (30%), Method: PREINCUBATION): inactive; negative
- mutagenic call (Test System: AMES SALMONELLA TYPHIMURIUM, Strain/Indicator: TA1535, Metabolic Activation: RAT, LIVER, S-9, AROCLOR 1254, Method: STANDARD PLATE): inactive; negative
- mutagenic call (Test System: AMES SALMONELLA TYPHIMURIUM, Strain/Indicator: TA1537, Metabolic Activation: HAMSTER, LIVER, S-9, AROCLOR 1254, Method: STANDARD PLATE): inactive; negative
- mutagenic call (Test System: AMES SALMONELLA TYPHIMURIUM, Strain/Indicator: TA1537, Metabolic Activation: NONE, Method: STANDARD PLATE): inactive; negative
- mutagenic call (Test System: AMES SALMONELLA TYPHIMURIUM, Strain/Indicator: TA1537, Metabolic Activation: RAT, LIVER, S-9, AROCLOR 1254, Method: STANDARD PLATE): inactive; negative
- mutagenic call (Test System: AMES SALMONELLA TYPHIMURIUM, Strain/Indicator: TA1538, Metabolic Activation: HAMSTER, LIVER, S-9, AROCLOR 1254, Method: STANDARD PLATE): inactive; negative
- mutagenic call (Test System: AMES SALMONELLA TYPHIMURIUM, Strain/Indicator: TA1538, Metabolic Activation: NONE, Method: STANDARD PLATE): inactive; negative
- mutagenic call (Test System: AMES SALMONELLA TYPHIMURIUM, Strain/Indicator: TA1538, Metabolic Activation: RAT, LIVER, S-9, AROCLOR 1254, Method: STANDARD PLATE): inactive; negative
- mutagenic call (Test System: MOUSE LYMPHOMA, Strain/Indicator: L5178Y (TK+/TK-), Metabolic Activation: NONE, Method: SUSPENSION/PLATE): active; positive. reevaluation of results: positive
- mutagenic call (Test System: MOUSE LYMPHOMA, Strain/Indicator: L5178Y (TK+/TK-), Metabolic Activation: RAT, LIVER, S-9, AROCLOR 1254, Method: SUSPENSION/PLATE): inactive; negative. reevaluation of results: negative

Compound: CCCCN(CO)N=O
- mutagenic call (Test System: CHINESE HAMSTER V-79, Strain/Indicator: V-79/OUABAIN, Metabolic Activation: NONE): active; positive

Compound: Nc1cc2ccccc2cc1N
- mutagenic call (Test System: AMES SALMONELLA TYPHIMURIUM, Strain/Indicator: TA98, Metabolic Activation: RAT LIVER CYTOSOL, AROCLOR 1254, Method: STANDARD PLATE): active; positive
- mutagenic call (Test System: AMES SALMONELLA TYPHIMURIUM, Strain/Indicator: TA98, Metabolic Activation: RAT LIVER MICROSOMES, AROCLOR 1254, Method: STANDARD PLATE): active; positive
